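In this assay, cells in 96-well plates receive the compound at five concentrations for 48 hours. Endpoints are linearly interpolated between the surrounding concentrations. Abbreviation: GI50, concentration required for 50% inhibition of growth.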 Active and inactive are the calls of the source. Rule as the data show it: active = GI50 up to about 1.1 µM and inactive = higher.
Tests used:
Assay in all cases: growth of human tumour cells (NCI), 48 h
SNB-75 = system: SNB-75
A498 = system: A498
Hs-578T = system: Hs-578T
MDA-MB-231 = system: MDA-MB-231
DU-145 = system: DU-145
SK-OV-3 = system: SK-OV-3
HOP-62 = system: HOP-62
NCI-H460 = system: NCI-H460
SF-268 = system: SF-268
CAKI-1 = system: CAKI-1
COLO 205 = system: COLO 205
HT-29 = system: HT-29
786-0 = system: 786-0
SN12C = system: SN12C
SK-MEL-5 = system: SK-MEL-5
T47D = system: T47D
TK-10 = system: TK-10
HL-60 = system: HL-60

SMILES	GI50 (SNB-75)	GI50 (A498)	GI50 (Hs-578T)	GI50 (MDA-MB-231)	GI50 (DU-145)	GI50 (SK-OV-3)	GI50 (HOP-62)	GI50 (NCI-H460)	GI50 (SF-268)	GI50 (CAKI-1)	GI50 (COLO 205)	GI50 (HT-29)	GI50 (786-0)	GI50 (SN12C)	GI50 (SK-MEL-5)	GI50 (T47D)	GI50 (TK-10)	GI50 (HL-60)
CC(=O)N(CN1C(=O)CCC1C(=O)O)c1ccc(C)cc1 (configuration not stated)	> 100 µM (inactive)	> 100 µM (inactive)	> 100 µM (inactive)	> 100 µM (inactive)	> 100 µM (inactive)	> 100 µM (inactive)	> 100 µM (inactive)	> 100 µM (inactive)	> 100 µM (inactive)	> 100 µM (inactive)	> 100 µM (inactive)	> 100 µM (inactive)	> 100 µM (inactive)	> 100 µM (inactive)	> 100 µM (inactive)	> 100 µM (inactive)	> 100 µM (inactive)	> 100 µM (inactive)
Cc1cn(C2CC(O)C(COC(N)=O)O2)c(=O)[nH]c1=O (configuration not stated)	71.1 µM (inactive)	> 100 µM (inactive)	> 100 µM (inactive)	> 100 µM (inactive)	> 100 µM (inactive)	> 100 µM (inactive)	> 100 µM (inactive)	> 100 µM (inactive)	> 100 µM (inactive)	> 100 µM (inactive)	> 100 µM (inactive)	> 100 µM (inactive)	> 100 µM (inactive)	> 100 µM (inactive)	> 100 µM (inactive)	> 100 µM (inactive)	> 100 µM (inactive)	> 100 µM (inactive)
CCOC(=O)CC[C@H](N)C(=O)N[C@H](Cc1ccc(N(CCCl)CCCl)cc1)C(=O)OCC	0.468 µM (active)	8.53 µM (inactive)	2.39 µM (inactive)	6.55 µM (inactive)	0.348 µM (active)	4.54 µM (inactive)	2.26 µM (inactive)	1.58 µM (inactive)	0.414 µM (active)	0.154 µM (active)	0.977 µM (active)	3.92 µM (inactive)	0.703 µM (active)	1.79 µM (inactive)	45.3 µM (inactive)	0.239 µM (active)	2.26 µM (inactive)	4.16 µM (inactive)
COc1cc(Cn2c3c(c4c(CN(C)C)c(O)ccc42)C(=O)c2ccccc2C3=O)cc(OC)c1	0.414 µM (active)	10.1 µM (inactive)	19.1 µM (inactive)	17.7 µM (inactive)	21.7 µM (inactive)	20.1 µM (inactive)	15.7 µM (inactive)	17.7 µM (inactive)	14.8 µM (inactive)	13 µM (inactive)	25.5 µM (inactive)	26.9 µM (inactive)	12.5 µM (inactive)	22.9 µM (inactive)	11.9 µM (inactive)	15.4 µM (inactive)	28.7 µM (inactive)	22.4 µM (inactive)
CCCCC(=O)NC1(c2cc3ccccc3s2)CCCCC1	> 100 µM (inactive)	> 100 µM (inactive)	> 100 µM (inactive)	> 100 µM (inactive)	> 100 µM (inactive)	> 100 µM (inactive)	> 100 µM (inactive)	> 100 µM (inactive)	> 100 µM (inactive)	> 100 µM (inactive)	> 100 µM (inactive)	> 100 µM (inactive)	> 100 µM (inactive)	> 100 µM (inactive)	> 100 µM (inactive)	> 100 µM (inactive)	> 100 µM (inactive)	4.89 µM (inactive)
O=C1CSC(/C=C/c2ccccc2)N1c1ccc(-c2ccc(-n3c(-c4ccccc4)nc4ccccc4c3=O)cc2)cc1 (configuration not stated)	0.562 µM (active)	42.2 µM (inactive)	> 10 µM (inactive)	25.1 µM (inactive)	24.7 µM (inactive)	51.8 µM (inactive)	28.5 µM (inactive)	30.7 µM (inactive)	35.6 µM (inactive)	33.7 µM (inactive)	18.2 µM (inactive)	14.5 µM (inactive)	13.4 µM (inactive)	27.4 µM (inactive)	13.8 µM (inactive)	15.2 µM (inactive)	39.5 µM (inactive)	28.8 µM (inactive)
NC1(P(=O)(O)O)CCCCC1	> 100 µM (inactive)	> 100 µM (inactive)	> 100 µM (inactive)	> 100 µM (inactive)	> 100 µM (inactive)	> 100 µM (inactive)	> 100 µM (inactive)	> 100 µM (inactive)	> 100 µM (inactive)	> 100 µM (inactive)	> 100 µM (inactive)	> 100 µM (inactive)	> 100 µM (inactive)	> 100 µM (inactive)	> 100 µM (inactive)	> 100 µM (inactive)	> 100 µM (inactive)	< 0.01 µM (active)
Cc1nc2[nH]ccn2c(=O)c1CCO	> 10 µM (inactive)	> 10 µM (inactive)	> 10 µM (inactive)	> 10 µM (inactive)	> 10 µM (inactive)	> 10 µM (inactive)	> 10 µM (inactive)	> 10 µM (inactive)	> 10 µM (inactive)	> 10 µM (inactive)	> 10 µM (inactive)	> 10 µM (inactive)	> 10 µM (inactive)	> 10 µM (inactive)	> 10 µM (inactive)	> 10 µM (inactive)	> 10 µM (inactive)	> 10 µM (inactive)
CCOC(=O)C1(Cc2ccccc2)C=CN(C(=O)c2ccccc2)C=C1	17.8 µM (inactive)	22.9 µM (inactive)	32.5 µM (inactive)	37 µM (inactive)	57.3 µM (inactive)	> 100 µM (inactive)	45.9 µM (inactive)	51.1 µM (inactive)	47.4 µM (inactive)	38.5 µM (inactive)	17.8 µM (inactive)	34.2 µM (inactive)	43.7 µM (inactive)	29.6 µM (inactive)	15.1 µM (inactive)	16.1 µM (inactive)	28.4 µM (inactive)	16.6 µM (inactive)
Cc1cc2c(cc1Cl)SC(NNC1=NCCN1)=NS2(=O)=O	> 10 µM (inactive)	> 10 µM (inactive)	> 10 µM (inactive)	> 10 µM (inactive)	> 10 µM (inactive)	> 10 µM (inactive)	> 10 µM (inactive)	> 10 µM (inactive)	> 10 µM (inactive)	> 10 µM (inactive)	> 10 µM (inactive)	> 10 µM (inactive)	> 10 µM (inactive)	> 10 µM (inactive)	> 10 µM (inactive)	> 10 µM (inactive)	> 10 µM (inactive)	> 10 µM (inactive)
CC1(C)O[C@H]2OC(CO)C(OS(C)(=O)=O)[C@H]2O1 (some centres not stated)	> 100 µM (inactive)	> 100 µM (inactive)	> 100 µM (inactive)	> 100 µM (inactive)	> 100 µM (inactive)		> 100 µM (inactive)	> 100 µM (inactive)	> 100 µM (inactive)	> 100 µM (inactive)	> 100 µM (inactive)	> 100 µM (inactive)	> 100 µM (inactive)	> 100 µM (inactive)	> 100 µM (inactive)	> 100 µM (inactive)	> 100 µM (inactive)	> 100 µM (inactive)
Cc1nn(-c2ccccc2)c2c1CC(=O)Nc1ccccc1-2	0.482 µM (active)	1.59 µM (inactive)	0.522 µM (active)	1.48 µM (inactive)	2.65 µM (inactive)	1.81 µM (inactive)	3.15 µM (inactive)	0.521 µM (active)	1.63 µM (inactive)	2.82 µM (inactive)	0.538 µM (active)	0.424 µM (active)	0.951 µM (active)		0.379 µM (active)	> 10 µM (inactive)	0.566 µM (active)	0.236 µM (active)
N=c1oc2ccc([N+](=O)[O-])cc2cc1C(=O)Nc1ccccn1	60.1 µM (inactive)	> 100 µM (inactive)	29.1 µM (inactive)	21.6 µM (inactive)	60.4 µM (inactive)	> 100 µM (inactive)	25.3 µM (inactive)	69 µM (inactive)	34.8 µM (inactive)	> 100 µM (inactive)	44 µM (inactive)	49.8 µM (inactive)	19.2 µM (inactive)	72.6 µM (inactive)	93.5 µM (inactive)	26.8 µM (inactive)		49.4 µM (inactive)
CN(C)CC(NC(NCS)C(=O)NCCNc1ccc(NCCNC(=O)C(NCS)NC(CN(C)C)OCCl)c2c1C(=O)c1c(O)ccc(O)c1C2=O)OCCl (configuration not stated)	0.0318 µM (active)	0.0635 µM (active)	0.243 µM (active)	0.0547 µM (active)	0.0365 µM (active)	0.147 µM (active)	0.0151 µM (active)	< 0.001 µM (active)	0.0557 µM (active)	< 0.001 µM (active)	1.34 µM (inactive)	0.0261 µM (active)	0.0552 µM (active)	0.0311 µM (active)	0.113 µM (active)	0.0327 µM (active)	0.619 µM (active)	
CSc1ncc2c(n1)-c1ccccc1OC2NC1CC1 (configuration not stated)	59 µM (inactive)	13.7 µM (inactive)	38.1 µM (inactive)	> 100 µM (inactive)	63 µM (inactive)	> 100 µM (inactive)		81.8 µM (inactive)	92.7 µM (inactive)	29.6 µM (inactive)	> 100 µM (inactive)	> 100 µM (inactive)	> 100 µM (inactive)	63.5 µM (inactive)	78.3 µM (inactive)	28.6 µM (inactive)	32.7 µM (inactive)	30.2 µM (inactive)
O=[N+]([O-])C1(C2([N+](=O)[O-])CCCC2)CCCC1	61 µM (inactive)	> 100 µM (inactive)	> 100 µM (inactive)	> 100 µM (inactive)	> 100 µM (inactive)	> 100 µM (inactive)		> 100 µM (inactive)	> 100 µM (inactive)	> 100 µM (inactive)	> 100 µM (inactive)	> 100 µM (inactive)	> 100 µM (inactive)	> 100 µM (inactive)	> 100 µM (inactive)	> 100 µM (inactive)	> 100 µM (inactive)	> 100 µM (inactive)

— ChEMBL document CHEMBL1201862, “PubChem BioAssay data set” (2004)
